Six compounds from patent US12077483B2, “Modified amine lipids” (Intellia Therapeutics, Inc., priority 2018, dated 2024) can be followed below.

Data set [1] can be described thus: pKa of amine lipid by TNS fluorescence. Format: physicochemical. To be noted: probe TNS (6-(p-toluidino)-2-naphthalenesulfonic acid sodium salt), unformulated amine lipid in ethanol, sodium phosphate buffers -9.0. A digest of the protocol:
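pKa derived from a sigmoidal fit of normalized TNS fluorescence (321 nm excitation, 448 nm emission) versus pH. Lipid from ethanol stock diluted to about 100 μM final in 0.1 M phosphate buffers, pH 4.5–9.0.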

Data set [2] in a line: LNP average particle size and polydispersity by dynamic light scattering. To be noted: LNP with the compound as amine lipid. Format: physicochemical. A digest of the protocol:
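LNPs were diluted in PBS to a count rate of about 200-400 kcps and measured by DLS on a Zetasizer. Size is the intensity-weighted Z-average diameter, reported with number-average diameter, and the polydispersity index describes the spread of sizes around the mean.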

Data set [3] in a line: RNA encapsulation efficiency of LNP (Ribogreen fluorescence assay). The settings on record: LNP with the compound as amine lipid. Format: physicochemical. A digest of the protocol: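 LNP samples diluted in 1× TE with or without 0.2% Triton-X 100 for total or free RNA, stained ~10 min at room temperature in the dark with RiboGreen; fluorescence ex 488/em 525 nm against RNA standard curves. Encapsulation efficiency = (Total RNA−Free RNA)/Total RNA.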

The subject of the next data set is mouse TTR. The data set is described as follows: Serum TTR ELISA in mice after LNP delivery. In kind it is in vivo. To be noted: mouse serum, relative to TSS control of same experiment. A digest of the protocol:
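Mouse TTR in serum was quantified by ELISA (samples diluted e.g. 10,000- and/or 2,500-fold) 6–7 days after dosing CD-1 females with LNP, typically 0.1 mpk. Values are reported relative to vehicle-treated controls (%).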

[4] abbreviates: Expt. 8, composition ratio (mol %) 50/9/38/3 for Cmpnd 49, 50/10/38.5/1.5 for the others.
Where [5] appears, read: Expt. 9, composition ratio (mol %) 50/9/38/3 for Cmpnd 49, 50/10/38.5/1.5 for the others.
Setting [6] is: Expt. 5, composition ratio (mol %) 50/10/38.5/1.5.
The mark [7] stands for this setting: Expt. 1, composition ratio (mol %) 50/9/38/3 for Cmpnd 49, 50/10/38.5/1.5 for the others.
Where [8] appears, read: Expt. 7, composition ratio (mol %) 50/9/38/3 for Cmpnd 49, 50/10/38.5/1.5 for the others.
Where [9] appears, read: Expt. 2, composition ratio (mol %) 50/9/39.5/3 for Cmpnd 49, 50/9/39.5/1.5 for the others.

Each structure is given as a SMILES string.

As to `CCCCC/C=C\C/C=C\CCCCCCCC(=O)OCC(COC(=O)CCCCCCC/C=C\C/C=C\CCCCC)OC(=O)CCC(CCCCCCC)OC(=O)NCC1CCCN1C` (stereo not drawn) [Compound 74, 2-((4-((((1-methylpyrrolidin-2-yl)methyl)carbamoyl)oxy)undecanoyl)oxy)propane-1,3-diyl (9Z,9′Z,12Z,12′Z)-bis(octadeca-9,12-dienoate)], the pKa – broadly, the negative logarithm of the acid dissociation constant – in data set [1] is 6.44. Besides, in data set [2] (setting [4]), the “Num Ave Size (nm)” value is 74.58 nm, the PDI worked out at 0.024 and the “Z-Ave Size (nm)” value worked out at 92.14 nm. Also, the “Encapsulation (%)” value in data set [3] (setting [4]) was 99%. Also, the “Serum TTR % TSS” value with mouse TTR (dose 0.03 mpk) came out at 100.54 % TSS. The “Serum TTR % TSS” value with mouse TTR (dose 0.1 mpk) was determined as 110.06 % TSS.
On to `CCCCC/C=C\C/C=C\CCCCCCCC(=O)OCC(COC(=O)CCCCCCC/C=C\C/C=C\CCCCC)OC(=O)CC[C@@H](CCCCCC)OC(=O)NCCN1CCCC1` [Compound 90, 2-(((R)-4-(((2-(pyrrolidin-1-yl)ethyl)carbamoyl)oxy)decanoyl)oxy)propane-1,3-diyl (9Z,9′Z,12Z,12′Z)-bis(octadeca-9,12-dienoate)], for which the pKa in data set [1] is 6.8. For the same compound, in data set [2] (setting [5]), the “Num Ave Size (nm)” value came out at 81 nm, the PDI is listed as 0.02 and the “Z-Ave Size (nm)” value is 99 nm. The “Encapsulation (%)” value in data set [3] (setting [5]) is 98%. Moreover, in the data set on mouse TTR (dose 0.03 mpk), the “Serum TTR % TSS” value is recorded as 59.95 % TSS.
For `CCCCC/C=C\C/C=C\CCCCCCCC(=O)OCC(COC(=O)CCCCCCC/C=C\C/C=C\CCCCC)OC(=O)CCC(CCCCCC)OC(=O)NC1CN(C)C1` (stereo not drawn) [Compound 84, 2-((4-(((1-methylazetidin-3-yl)carbamoyl)oxy)decanoyl)oxy)propane-1,3-diyl (9Z,9′Z,12Z,12′Z)-bis(octadeca-9,12-dienoate)], in data set [1], the pKa turned out to be 7.39. Besides, in data set [2] (setting [6]), the “Num Ave Size (nm)” value came to 75 nm, the PDI came out at 0.03 and the “Z-Ave Size (nm)” value came out at 91.00 nm. In addition, in data set [3] (setting [6]), the “Encapsulation (%)” value was 99%. Also, the “Serum TTR % TSS” value in the data set with mouse TTR (dose 0.03 mpk) is 80.3 % TSS. For the same compound, in the data set on mouse TTR (dose 0.1 mpk), the “Serum TTR % TSS” value was 73.2 % TSS.
Turning to `CCCCCCCCCCCOC(=O)CCCCCCCC(=O)OCC(COC(=O)CCCCCCCC(=O)OCCCCCCCCCCC)OC(=O)CCC(CCCCCCCC)OC(=O)NCCN(C)CC` (stereo not drawn) [Compound 60, O′1,O1-(2-((4-(((2-(ethyl(methyl)amino)ethyl)carbamoyl)oxy)dodecanoyl)oxy)propane-1,3-diyl) 9,9′-diundecyl di(nonanedioate)], the pKa in data set [1] is 6.22. In data set [2] (setting [7]), the “Num Ave Size (nm)” value came out at 79.57 nm, the PDI is recorded as 0.07 and the “Z-Ave Size (nm)” value is 103.40 nm. For the same compound, the “Encapsulation (%)” value in data set [3] (setting [7]) was found to be 97%. Also, the “Serum TTR % TSS” value with mouse TTR (dose 0.1 mpk) is recorded as 60.51 % TSS.
Take `CCCCC/C=C\C/C=C\CCCCCCCC(=O)OCC(COC(=O)CCCCCCC/C=C\C/C=C\CCCCC)OC(=O)CCC(CCCCC)OC(=O)OCCCN1CCCC1` (stereo not drawn) [Compound 71, 2-((4-(((3-(pyrrolidin-1-yl)propoxy)carbonyl)oxy)nonanoyl)oxy)propane-1,3-diyl (9Z,9′Z,12Z,12′Z)-bis(octadeca-9,12-dienoate)]: in data set [1], the pKa was 6.28. Besides, in data set [2] (setting [8]), the “Num Ave Size (nm)” value is 86.63 nm, the PDI is on record as 0.035 and the “Z-Ave Size (nm)” value is listed as 104.5 nm. Besides, the “Encapsulation (%)” value in data set [3] (setting [8]) was 97%. Moreover, in the data set with mouse TTR (dose 0.03 mpk), the “Serum TTR % TSS” value was found to be 47.425 % TSS. In the data set with mouse TTR (dose 0.1 mpk), the “Serum TTR % TSS” value was found to be 15.055 % TSS.
As for `CCCCC/C=C\C/C=C\CCCCCCCC(=O)OCC(COC(=O)CCCCCCC/C=C\C/C=C\CCCCC)OC(=O)CCC(CCCC)OC(=O)OCCCN1CCCC1` (stereo not drawn) [Compound 68, 2-((4-(((3-(pyrrolidin-1-yl)propoxy)carbonyl)oxy)octanoyl)oxy)propane-1,3-diyl (9Z,9′Z,12Z,12′Z)-bis(octadeca-9,12-dienoate)], the pKa in data set [1] worked out at 6.32. Further, in data set [2] (setting [9]), the “Num Ave Size (nm)” value came out at 100.4 nm, the PDI turned out to be 0.051 and the “Z-Ave Size (nm)” value stood at 122.30 nm. In data set [3] (setting [9]), the “Encapsulation (%)” value amounted to 99%. For the same compound, the “Serum TTR % TSS” value with mouse TTR (dose 0.03 mpk) is recorded as 68.58 % TSS.
